Experimental findings from patent publication US20250268877A1 (BIOGEN MA INC., priority 2020, published 2025) are described below.

Structures are written as SMILES. Converted amounts (≈) assume the structure as drawn.

For one data set, the target named is MDR1 (Homo sapiens (Human), UniProt P08183). Kind of data set: MDR1-MDCK assay (apparent permeability, efflux ratio). Particulars: human, MDCK-MDR1, 1 μM, read-out: MDR1-MDCK_Efflux Ratio. Type of data set: in vitro ADME.
Data set [1] in a line: Kinetic solubility assay (CLND), potassium phosphate buffer pH 6.8. Type of data set: physicochemical. Particulars: potassium phosphate buffer, pH 6.8, aqueous buffer, kinetic from dmso stock, pH 6.8, 2% DMSO, 24 hours at ambient temperature.
Description: • Inject filtrates into the nitrogen detector for quantification on Analiza's Automated Discovery Workstation (ADW). • Solubility results generated in μg/mL
Data set [2] can be described thus: Kpuu assay (in vivo brain-to-plasma partition, unbound). Conditions: intravenous infusion 4 to 24 h, unbound drug partition coefficient; for Kp: brain (unbound) versus plasma (unbound), read-out: Brain Kpu,u.
Protocol: For the brain-to-plasma partition coefficient (Kp) evaluation, a dosing solution was intravenously infused into animals at a constant flow rate for 4 to 24 h. Blood samples were serially collected during infusion, and CSF and brain samples were harvested at the end of infusion.
Tissue samples were typically homogenized in phosphate buffer saline (PBS) using a bead ruptor.
CSF samples were typically diluted with 8% BSA in PBS to prevent from non-specific binding. Artificial CSF (aCSF) is used as the surrogate matrix.
Calibration curves were prepared by spiking the analyte(s) into blank matrices, which were processed together with plasma, tissue homogenate and/or CSF samples by protein precipitation using a proper organic solvent (e.g. acetonitrile and methanol) containing generic analogue internal standards (e.g. verapamil, chrysin and glyburide). Matrix matching was used when analyzing multiple matrices in the same run. Samples above the upper limit of quantitation (ULOQ) needed to be diluted into the calibration range using either a pre-extraction or post-extraction dilution approach.
Processed samples were analyzed by LC-MS/MS using a proper method performing within the acceptable sensitivity, selectivity, precision and accuracy. For an analytical run to be accepted, over 75% of the calibration standards in the dual calibration curves needed to be within 20% of the nominal concentrations.
Brain concentrations were compared against plasma concentrations at the corresponding timepoint for the calculation of partition coefficient (Kp).
Unbound drug partition coefficient (Kpuu), defined as the ratio of unbound drug partition across the blood-brain barrier, was calculated using the equation below:
[formula] • Cb: measured total drug concentration in brain • Fub: unbound drug fraction in brain • Cp: measured total drug concentration in plasma • Fup: unbound drug fraction in plasma Compound- or study-specific PK analysis that deviates from the typical procedure might be used when necessary, which will be documented in a study specific protocol included in the data upload.
Mix thoroughly. • This spiked plasma solution is shown in FIG. 1. • 3) Prepare a chilled ‘crash’ solution of internal standard in a solvent solution. • Pipette 200 μL of 25 ng/mL solution of internal standard, CPDPX (8-Cyclopentyl-1,3-dipropylxanthine, Sigma-Aldrich, C101) in 1:1 acetonitrile/methanol solvent solution into a 1 mL 96-well plate. • Chill on ice or refrigerate at 4° C. • This solution becomes the ‘Crash’ plate in FIG. 1. • 4) From remaining spiked plasma, remove 50 μL (T=0 h) of each plasma sample and place into a crash plate which contains 200 μL. To matrix match, add 50 μL of blank buffer to the crashed sample (similar to PPB samples). […] Mix crash plate thoroughly. • From remaining spiked plasma, remove 50 μL (T=4 h) of each plasma sample and place into a crash plate. To matrix match, add 50 μL of blank buffer to the crashed sample (similar to the protein binding samples). • Centrifuge crash plate at 3900 rpm for 10 minutes at 4° C.
% Free=(PAR of buffer side/PAR of plasma side)*100 • PAR—Peak area ratio (PAR)
Fu=% Free/100 • Fu=fraction unbound
In a further data set the target is IRAK4 (Homo sapiens (Human), UniProt Q9NWZ3). As to the kind of experiment: IRAK4 2-hour 1 mM ATP Biochemical Assay (MesoScale Detection format). Particulars: 100 pM IRAK4, read-out: IRAK4 IC50.
Chain of IRAK4 (Q9NWZ3 whole entry): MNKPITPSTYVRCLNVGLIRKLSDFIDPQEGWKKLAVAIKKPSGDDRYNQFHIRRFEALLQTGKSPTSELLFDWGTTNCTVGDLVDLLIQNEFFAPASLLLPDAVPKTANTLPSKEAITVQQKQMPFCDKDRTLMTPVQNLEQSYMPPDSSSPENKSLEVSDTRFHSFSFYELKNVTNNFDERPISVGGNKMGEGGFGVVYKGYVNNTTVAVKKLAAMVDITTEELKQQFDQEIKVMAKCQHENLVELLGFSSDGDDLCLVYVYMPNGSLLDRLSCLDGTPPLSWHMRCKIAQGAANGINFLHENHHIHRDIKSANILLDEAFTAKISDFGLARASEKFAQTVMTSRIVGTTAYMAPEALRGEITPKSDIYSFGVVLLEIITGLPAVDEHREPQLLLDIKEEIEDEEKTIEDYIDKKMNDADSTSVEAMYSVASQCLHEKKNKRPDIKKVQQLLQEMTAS

Chain of MDR1 (P08183 whole entry): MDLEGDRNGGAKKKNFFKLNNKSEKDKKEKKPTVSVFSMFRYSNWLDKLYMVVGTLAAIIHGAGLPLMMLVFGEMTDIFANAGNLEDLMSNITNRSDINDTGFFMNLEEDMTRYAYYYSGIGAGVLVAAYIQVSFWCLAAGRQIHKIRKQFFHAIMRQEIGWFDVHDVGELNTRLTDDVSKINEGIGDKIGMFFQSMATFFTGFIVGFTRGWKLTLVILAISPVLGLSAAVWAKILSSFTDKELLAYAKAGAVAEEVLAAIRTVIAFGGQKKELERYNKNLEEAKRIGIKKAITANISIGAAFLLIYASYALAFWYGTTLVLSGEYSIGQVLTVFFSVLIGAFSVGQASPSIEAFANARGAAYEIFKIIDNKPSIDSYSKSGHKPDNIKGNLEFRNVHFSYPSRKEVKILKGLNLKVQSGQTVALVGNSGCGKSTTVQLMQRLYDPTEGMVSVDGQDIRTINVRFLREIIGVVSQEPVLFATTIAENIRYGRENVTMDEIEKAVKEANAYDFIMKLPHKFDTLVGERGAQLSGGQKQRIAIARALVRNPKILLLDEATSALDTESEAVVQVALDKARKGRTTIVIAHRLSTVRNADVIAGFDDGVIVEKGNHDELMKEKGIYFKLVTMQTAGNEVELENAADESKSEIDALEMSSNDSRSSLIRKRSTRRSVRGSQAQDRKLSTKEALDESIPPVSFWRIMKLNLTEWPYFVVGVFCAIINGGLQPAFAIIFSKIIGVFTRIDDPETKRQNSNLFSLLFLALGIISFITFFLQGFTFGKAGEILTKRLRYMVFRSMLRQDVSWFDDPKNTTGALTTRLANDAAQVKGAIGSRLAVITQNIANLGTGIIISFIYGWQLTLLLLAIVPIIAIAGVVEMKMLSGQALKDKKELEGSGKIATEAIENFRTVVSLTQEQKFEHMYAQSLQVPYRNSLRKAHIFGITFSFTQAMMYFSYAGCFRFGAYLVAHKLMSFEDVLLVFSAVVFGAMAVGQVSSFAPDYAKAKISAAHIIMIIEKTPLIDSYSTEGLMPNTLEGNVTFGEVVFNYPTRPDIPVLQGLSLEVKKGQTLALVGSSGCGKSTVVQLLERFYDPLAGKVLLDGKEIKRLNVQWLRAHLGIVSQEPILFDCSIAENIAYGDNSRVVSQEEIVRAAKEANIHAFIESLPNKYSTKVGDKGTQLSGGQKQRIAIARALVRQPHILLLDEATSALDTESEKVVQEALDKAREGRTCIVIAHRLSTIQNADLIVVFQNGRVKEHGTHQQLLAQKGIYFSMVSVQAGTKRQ

As usually defined, the solubility is the concentration that dissolves in the medium under given conditions. Low readings indicate a poorly soluble substance, high ones a readily soluble substance. As to `CC(C)Oc1nc2nn(C34COC(C)(C3)C4)cc2cc1C(=O)Nc1cccn([C@H]2C[C@H]2F)c1=O` (single isomer, unassigned) [Example 34], at MDR1, the efflux ratio at 120 min, 1 μM is 3.8. In data set [1], this molecule showed a solubility at 24 h of 24.9 µg/mL (≈ 53.3 µM). Further, the Kp in data set [2] was determined as 0.7.

Broadly, the IC50 is the point on the concentration scale where inhibition reaches its midpoint. Turning to `C[C@@]12CC[C@@](n3cc4cc(C(=O)Nc5cccn(C6CC6)c5=O)c(OC5CCC5)cc4n3)(CO1)C2` (single isomer, unassigned) [Example 40], the IC50 on IRAK4 turned out to be 0.4 nM. The efflux ratio at 120 min, 1 μM at MDR1 came out at 1.32. Moreover, the solubility at 24 h in data set [1] amounted to 19.9 µg/mL (≈ 41.9 µM). Also, in data set [2], the “Brain Kpu,u” value worked out at 0.8.

As for `CC(C)Oc1cc2nn([C@@]34CC[C@@](C)(C3)OC4)cc2cc1C(=O)Nc1cccn([C@@H]2C[C@H]2F)c1=O` (single isomer, unassigned) [Example 59], at IRAK4, the concentration for half-maximal inhibition (IC50) is 0.5 nM. Besides, the efflux ratio at 120 min, 1 μM on MDR1 was 1.59. Moreover, the solubility at 24 h in data set [1] was 55.4 µg/mL (≈ 115 µM). Moreover, the Kp in data set [2] came to 1.3.

As to `CC(C)Oc1cc2nn(C34COC(CF)(C3)C4)cc2cc1C(=O)Nc1cccn([C@@H]2C[C@H]2C)c1=O` (single isomer, unassigned) [Example 69], the IC50 on IRAK4 came out at 0.5 nM. Further, on MDR1, the efflux ratio at 120 min, 1 μM worked out at 1.74. Also, the solubility at 24 h in data set [1] amounted to 8.2 µg/mL (≈ 17.1 µM). The Kp in data set [2] was 0.7.

Take `O=C(Nc1cccn([C@H]2C[C@H]2F)c1=O)c1cc2cn([C@]34CC[C@H](C3)OC4)nc2nc1OC1CC1` (single isomer, unassigned) [Example 88]: the IC50 on IRAK4 came to 0.2 nM. Moreover, the efflux ratio at 120 min, 1 μM at MDR1 came out at 9.11. In data set [1], this molecule showed a solubility at 24 h of 59.3 µg/mL (≈ 127 µM). For the same molecule, in data set [2], the Kp is 0.2.

Take `CC(C)Oc1nc2nn(C[C@@H]3CCOC3)cc2cc1C(=O)Nc1cccn(C2CC2)c1=O` [Example 4, (S)—N-(1-cyclopropyl-2-oxo-1,2-dihydropyridin-3-yl)-6-isopropoxy-2-((tetrahydrofuran-3-yl)methyl)-2H-pyrazolo[3,4-b]pyridine-5-carboxamide]: on IRAK4, the IC50 stood at 0.4 nM. On MDR1, the efflux ratio at 120 min, 1 μM came out at 6.36. The solubility at 24 h in data set [1] amounted to 43 µg/mL (≈ 98.2 µM). Also, the Kp in data set [2] came out at 0.4.

As for `CC(C)Oc1nc2nn(C[C@H]3CCOC3)cc2cc1C(=O)Nc1cccn(C2CC2)c1=O` [Example 5, (R)—N-(1-cyclopropyl-2-oxo-1,2-dihydropyridin-3-yl)-6-isopropoxy-2-((tetrahydrofuran-3-yl)methyl)-2H-pyrazolo[3,4-b]pyridine-5-carboxamide], the IC50 at IRAK4 was determined as 0.2 nM. Further, the efflux ratio at 120 min, 1 μM on MDR1 is 4.88. This molecule came in with a solubility at 24 h in data set [1] of 45.6 µg/mL (≈ 104 µM). The Kp in data set [2] is 0.8.

Turning to `COCC12CC(n3cc4cc(C(=O)Nc5cccn(C6CC6)c5=O)c(OC(C)C)nc4n3)(CO1)C2` [Example 11, N-(1-cyclopropyl-2-oxo-1,2-dihydropyridin-3-yl)-6-isopropoxy-2-(1-(methoxymethyl)-2-oxabicyclo[2.1.1]hexan-4-yl)-2H-pyrazolo[3,4-b]pyridine-5-carboxamide], the concentration for half-maximal inhibition (IC50) on IRAK4 came to 0.2 nM. Further, on MDR1, the efflux ratio at 120 min, 1 μM was 4.8. Besides, the solubility at 24 h in data set [1] was 36 µg/mL (≈ 75.1 µM). For the same molecule, the Kp in data set [2] was 0.9.

Take `CC[C@H](C)Oc1nc2nn(C34COC(C)(C3)C4)cc2cc1C(=O)Nc1cccn(C2CC2)c1=O` [Example 15, (S)-6-(sec-butoxy)-N-(1-cyclopropyl-2-oxo-1,2-dihydropyridin-3-yl)-2-(1-methyl-2-oxabicyclo[2.1.1]hexan-4-yl)-2H-pyrazolo[3,4-b]pyridine-5-carboxamide]: at IRAK4, the IC50 stood at 0.5 nM. Besides, at MDR1, the efflux ratio at 120 min, 1 μM turned out to be 1.4. In data set [2], the Kp amounted to 0.9.

Regarding `COCC12CCC(n3cc4cc(C(=O)Nc5cccn(C6CC6)c5=O)c(OC(C)C)nc4n3)(CO1)C2` (stereo not shown) [Example 29, N-(1-cyclopropyl-2-oxo-1,2-dihydropyridin-3-yl)-6-isopropoxy-2-(1-(methoxymethyl)-2-oxabicyclo[2.2.1]heptan-4-yl)-2H-pyrazolo[3,4-b]pyridine-5-carboxamide], the IC50 on IRAK4 turned out to be 0.2 nM. In addition, the efflux ratio at 120 min, 1 μM on MDR1 was 2.79. The molecule also had a solubility at 24 h in data set [1] of 74.2 µg/mL (≈ 150 µM).

`COC[C@@]12CC[C@@](n3cc4cc(C(=O)Nc5cccn(C6CC6)c5=O)c(OC(C)C)nc4n3)(CO1)C2` [Example 30, N-(1-cyclopropyl-2-oxo-1,2-dihydropyridin-3-yl)-6-isopropoxy-2-((1S,4S)-1-(methoxymethyl)-2-oxabicyclo[2.2.1]heptan-4-yl)-2H-pyrazolo[3,4-b]pyridine-5-carboxamide]: on IRAK4, the IC50 stood at 0.2 nM. For the same molecule, the efflux ratio at 120 min, 1 μM at MDR1 came to 2.58. Further, the Kp in data set [2] is 0.6.

As to `COC[C@]12CC[C@](n3cc4cc(C(=O)Nc5cccn(C6CC6)c5=O)c(OC(C)C)nc4n3)(CO1)C2` [Example 31, N-(1-cyclopropyl-2-oxo-1,2-dihydropyridin-3-yl)-6-isopropoxy-2-((1R,4R)-1-(methoxymethyl)-2-oxabicyclo[2.2.1]heptan-4-yl)-2H-pyrazolo[3,4-b]pyridine-5-carboxamide], on IRAK4, the IC50 amounted to 0.2 nM. For the same molecule, the efflux ratio at 120 min, 1 μM on MDR1 was 2.5. The molecule also yielded a solubility at 24 h in data set [1] of 61.8 µg/mL (≈ 125 µM).

As to `CC(C)Oc1cc2nn(C34COC(C)(C3)C4)cc2cc1C(=O)Nc1ccnn(C2CC2)c1=O` [Example 45, N-(2-cyclopropyl-3-oxo-2,3-dihydropyridazin-4-yl)-6-isopropoxy-2-(1-methyl-2-oxabicyclo[2.1.1]hexan-4-yl)-2H-indazole-5-carboxamide], the IC50 on IRAK4 amounted to 1.3 nM. The efflux ratio at 120 min, 1 μM at MDR1 was 0.73. Besides, in data set [1], the solubility at 24 h amounted to 1.2 µg/mL (≈ 2.67 µM).

Take `CC(C)Oc1nc2nn(C34COC(C)(C3)C4)cc2cc1C(=O)Nc1ccnn(C2CC2)c1=O` [Example 46, N-(2-cyclopropyl-3-oxo-2,3-dihydropyridazin-4-yl)-6-isopropoxy-2-(1-methyl-2-oxabicyclo[2.1.1]hexan-4-yl)-2H-pyrazolo[3,4-b]pyridine-5-carboxamide]: at IRAK4, the IC50 came out at 0.4 nM. In addition, the efflux ratio at 120 min, 1 μM at MDR1 stood at 0.88. The solubility at 24 h in data set [1] came to 0.2 µg/mL (≈ 0.444 µM).

As to `COCC12CC(n3cc4cc(C(=O)Nc5cccn([C@H]6C[C@H]6F)c5=O)c(OC(C)C)cc4n3)(CO1)C2` [Example 67, N-(1-((1S,2R)-2-fluorocyclopropyl)-2-oxo-1,2-dihydropyridin-3-yl)-6-isopropoxy-2-(1-(methoxymethyl)-2-oxabicyclo[2.1.1]hexan-4-yl)-2H-indazole-5-carboxamide], on IRAK4, the IC50 was 0.4 nM. Further, the efflux ratio at 120 min, 1 μM on MDR1 is 5.31. In data set [1], this molecule had a solubility at 24 h of 34 µg/mL (≈ 68.5 µM).

As for `COCC12CC(n3cc4cc(C(=O)Nc5cccn([C@H]6C[C@H]6C)c5=O)c(OC(C)C)cc4n3)(CO1)C2` [Example 78, 6-isopropoxy-2-(1-(methoxymethyl)-2-oxabicyclo[2.1.1]hexan-4-yl)-N-(1-((1S,2R)-2-methylcyclopropyl)-2-oxo-1,2-dihydropyridin-3-yl)-2H-indazole-5-carboxamide], the IC50 on IRAK4 is 0.7 nM. In addition, the efflux ratio at 120 min, 1 μM on MDR1 was 2.05. Further, the solubility at 24 h in data set [1] turned out to be 36.1 µg/mL (≈ 73.3 µM).

In the case of `CC(C)Oc1cc2nn(C34COC(C3)C4)cc2cc1C(=O)Nc1cccn([C@H]2C[C@H]2C)c1=O` [Example 79, 2-(2-oxabicyclo[2.1.1]hexan-4-yl)-6-isopropoxy-N-(1-((1S,2R)-2-methylcyclopropyl)-2-oxo-1,2-dihydropyridin-3-yl)-2H-indazole-5-carboxamide], the IC50 on IRAK4 came out at 0.8 nM. Besides, the efflux ratio at 120 min, 1 μM at MDR1 worked out at 2.56. Also, in data set [1], the solubility at 24 h is 55.8 µg/mL (≈ 124 µM).

For `CC(C)Oc1cc2nn(C34COC(CF)(C3)C4)cc2cc1C(=O)Nc1cccn([C@H]2C[C@H]2C)c1=O` [Example 82, 2-(1-(fluoromethyl)-2-oxabicyclo[2.1.1]hexan-4-yl)-6-isopropoxy-N-(1-((1S,2R)-2-methylcyclopropyl)-2-oxo-1,2-dihydropyridin-3-yl)-2H-indazole-5-carboxamide], on IRAK4, the IC50 worked out at 0.7 nM. Further, the efflux ratio at 120 min, 1 μM at MDR1 turned out to be 2.17. The molecule further displayed a solubility at 24 h in data set [1] of 33.8 µg/mL (≈ 70.3 µM).

In the case of `C[C@@H]1C[C@@H]1n1cccc(NC(=O)c2cc3cn(C45COC(C)(C4)C5)nc3nc2OC2CC2)c1=O` [Example 89, 6-cyclopropoxy-2-(1-methyl-2-oxabicyclo[2.1.1]hexan-4-yl)-N-(1-((1S,2R)-2-methylcyclopropyl)-2-oxo-1,2-dihydropyridin-3-yl)-2H-pyrazolo[3,4-b]pyridine-5-carboxamide], the IC50 at IRAK4 worked out at 0.9 nM. On MDR1, the efflux ratio at 120 min, 1 μM amounted to 2.28. Moreover, the solubility at 24 h in data set [1] came to 38.1 µg/mL (≈ 82.6 µM).

`COCC12CC(n3cc4cc(C(=O)Nc5cccn([C@H]6C[C@H]6C)c5=O)c(OC5CC5)nc4n3)(CO1)C2` [Example 90]: the IC50 on IRAK4 came out at 1.1 nM. On MDR1, the efflux ratio at 120 min, 1 μM is 5.39. In data set [1], this molecule had a solubility at 24 h of 65.2 µg/mL (≈ 133 µM).

For the molecule `C[C@@H]1C[C@@H]1n1cccc(NC(=O)c2cc3cn(C45COC(C4)C5)nc3nc2OC2CC2)c1=O` [Example 91, 2-(2-oxabicyclo[2.1.1]hexan-4-yl)-6-cyclopropoxy-N-(1-((1S,2R)-2-methylcycloproyl)-2-oxo-1,2-dihydropyridin-3-yl)-2H-pyrazolo[3,4-b]pyridine-5-carboxamide], the IC50 at IRAK4 is 1.1 nM. For the same molecule, the efflux ratio at 120 min, 1 μM at MDR1 was 5.09. Further, the solubility at 24 h in data set [1] is 46.7 µg/mL (≈ 104 µM).

Regarding `C[C@@H]1C[C@@H]1n1cccc(NC(=O)c2cc3cn(C45COC(C)(C4)C5)nc3nc2OC2CCC2)c1=O` [Example 95, 6-cyclobutoxy-2-(1-methyl-2-oxabicyclo[2.1.1]hexan-4-yl)-N-(1-((1S,2R)-2-methylcyclopropyl)-2-oxo-1,2-dihydropyridin-3-yl)-2H-pyrazolo[3,4-b]pyridine-5-carboxamide], the IC50 on IRAK4 stood at 0.8 nM. Further, the efflux ratio at 120 min, 1 μM at MDR1 was found to be 1.09. The solubility at 24 h in data set [1] was 48.3 µg/mL (≈ 102 µM).
